Data published in patent US20160206631A1, “OXYSTEROLS THAT ACTIVATE LIVER X RECEPTOR SIGNALING AND INHIBIT HEDGEHOG SIGNALING” (THE REGENTS OF THE UNIVERSITY OF CALIFORNIA, priority 2010, published 2016).

Assays:
[1] = test system: U2OS human osteosarcoma cells; assay: Anchorage-independent clonogenic growth of U2OS cells; type: cell-based; conditions: 1 μM, 72 hours, colonies after 10 days (FIG. 4)
Description: (§1) Next, cells were harvested and examined for clonogenic growth in non-adherent plates after 10 days of culturing. Data from a representative of two separate experiments are reported as the relative number of colonies formed by cells treated with LXR ligands relative to cells treated with control vehicle (% of control).
(§2) We examined whether LXR activation inhibits the clonogenic growth of human osteosarcoma cells using an anchorage-independent cell growth assay. Saos-2 and U2OS cells were seeded in standard tissue culture plates and treated for 72 hours with control vehicle or 1 μM of TO, 22R, or Oxy16. Following treatments with LXR ligands, the drugs were removed and the cells harvested and plated in methylcellulose media in non-adherent plates (Costar) and the cell colonies formed after 10 days were counted.

REH human ALL cells = assay: Clonogenic growth of REH ALL cells; type: cell-based
Description: (§3) Following treatment cells were harvested by washing cells twice with phosphate buffered saline (PBS) followed by enzymatically detaching with trypsin/EDTA. Cells were collected then washed twice with PBS. Cells were counted then resuspended in 500 uL of media. The volume of cells required for 2,000 cells from the control group was removed from each group then mixed with methylcellulose (1.2%) containing 30% fetal bovine serum, 1% bovine serum albumin, 10^-4 M 2-mercaptoethanol, and 2 mM L-glutamine. Cells were plated in low-attachment 6 well plates (1 ml/well), each group being plated in triplicate. Following 10 days of incubation, tumor cell colonies consisting of >40 cells were counted using an inverted microscope. Results are presented as the percentage of colonies from each treatment group compared to the control group (Table 2).
A similar experiment to that shown above for pancreatic cancer cells was performed using the human ALL cells, REH (Table 3).

[2] = test system: human NCI-H929 multiple myeloma cell line; assay: Clonogenic growth of NCI-H929 multiple myeloma cells; type: cell-based; conditions: 1 μM, 96 hours, colonies after 10 days (FIG. 6)
Description: NCI-11929 multiple myeloma cells were treated for 96 hours with control vehicle or 1 μM of each compound as shown. Next, drugs were removed and cells were plated in methylcellulose. Clonogenic growth of colonies determined after 10 days. Data are reported as percentage of colony number normalized to control group.
In order to examine the effect of LXR activation on the clonogenic growth of multiple myeloma cells, the human NCI-H929 multiple myeloma cell line was used.

[3] = test system: human primary multiple myeloma cells derived from patients; assay: Clonogenic growth of primary multiple myeloma cells from patients in methylcellulose; type: cell-based; conditions: 1 μM, 96 hours, CD34+ and CD138+ depleted bone marrow mononuclear cells
LXR [4] = assay: LXR target gene expression in C3H10T1/2 cells; conditions: C3H10T1/2, 48 hours
Description: Next we examined whether LXR activation by LXR agonists inhibits CAPAN-1 CM-induced Hh target gene expression in fibroblastic cells.
As noted above, specific oxysterols are thought to be physiological ligands of LXRs that are classified as partial agonists based on their differential effects on the interaction of LXRs with co-activators and co-repressors compared to those induced by the full LXR agonist TO.

Hedgehog signaling = assay: CAPAN-1 conditioned-medium-induced Hh target gene expression (Ptch1, HHIP, Gli1) in C3H10T1/2 cells; type: cell-based; conditions: C3H10T1/2, 48 hours; TO 2 μM, Oxy16 5 μM, Cyc 4 μM (FIG. 10)
Description: Next, cells were treated with DMEM containing 5% […] or CAPAN-1 CM in the presence or absence of TO, Oxy16, or Cyc. After 48 hours, RNA was extracted and analyzed by Q-RT-PCR for the expression of Hh target genes Ptch1, HHIP, and Gli1 and normalized to GAPDH expression.
As noted above, Hh signaling appears to play an important role in the initiation and progression of pancreatic cancer (26), and the inhibition of HE signaling using small molecule antagonists inhibits pancreatic cancer cells from growing in vitro and in vivo (50). […] Subsequently, Hh signaling in stromal cells provides a permissive milieu for tumor cells to grow. […] In this Example, we examine this possibility using an in vitro model system in which Hh signaling is induced in C3H10T1/2 embryonic fibroblasts by conditioned-medium (CM) from CAPAN-1 human pancreatic cancer cells.
(§4) In order to assess the functional activity of Hh proteins produced by CAPAN-1 cells, we examined the ability of CM to induce Hh target gene expression in C3H10T1/2 embryonic fibroblasts.

[5] = test system: Saos-2 human osteosarcoma cells; assay: Anchorage-independent clonogenic growth of Saos-2 cells; type: cell-based; conditions: for clonogenic growth: Saos-2, 1 μM, 72 hours, colonies after 10 days (FIG. 4)
Description: as §1, §2

LXR [6] = assay: LXR target gene expression by Q-RT-PCR in Saos-2 osteosarcoma cells; type: cell-based, human; conditions: for expression of LXR target genes ABCA1 and SREBP1c: Saos-2 cells (FIG. 2, 72 hours for TO)
Text: Data from a representative experiment are reported as the Data from a representative experiment are reported as the mean of triplicate determinations±SD relative to the expression level of LXRα (p<0.001 for control vs. both concentrations of TO for ABCA1 and SREBP1c mRNA).
Culturing the cells in varying serum (FBS) concentrations from 1% to 10% had no effect on LXRs or LXR target gene expression levels at baseline.

[7] = test system: L3.6p1 human pancreatic cancer cells; assay: Clonogenic growth of L3.6p1 pancreatic cancer cells in methylcellulose; type: cell-based; conditions: 72 hours treatment, colonies counted after 10 days
Description: as §3

[8] = test system: C3H10T1/2 embryonic fibroblasts; assay: CAPAN-1 conditioned-medium-induced alkaline phosphatase activity in C3H10T1/2 cells; type: cell-based; conditions: C3H10T1/2, 3 days; TO 2 μM, Oxy16 5 μM, Cyc 4 μM (FIG. 11)
Description: Next, cells were treated with DMEM containing 5% FBS or CAPAN-1 CM in the presence or absence of TO, Oxy16, or Cyc. After 3 days, alkaline phosphatase activity assay using whole cell lysates was performed.
as §4

LXR [9] = assay: ABCA1 (LXR target gene) expression by Q-RT-PCR in M2-10B4 bone marrow stromal cells
Description: This was measured by the ability of these molecules to induce the expression of LXR-target genes, including ABCA1, in M2-10B4 bone marrow stromal cells (MSC) after 48 hours of treatment (Table 1).

[10] = test system: NCI-H929 multiple myeloma cancer stem cells; assay: Percentage of cancer stem cells (CD138 negative, ALDH positive) in NCI-H929 cultures by flow cytometry; type: cell-based, human; conditions: 1 μM, 96 hours (FIGS. 7, 8)
Description: NCI-H929 multiple myeloma cells were treated for 96 hours with control vehicle or 1 μM of each compound as shown. Next, percentage of CD138negative cells in the same number of starting cells from each group was determined by flow cytometry.
NCI-H929 multiple myeloma cells were treated for 96 hours with control vehicle or 1 μM of each compound as shown. Next, percentage of ALDH+ cells in the same number of starting cells from each group was determined by flow cytometry.

Hedgehog pathway = conditions: cited from earlier work
[11] = test system: Hedgehog signaling pathway; assay: Ptch1 mRNA expression (Hh target gene) by Q-RT-PCR in Saos-2 cells; type: cell-based, human; conditions: Saos-2, 2% FBS, 72 hours; 2 or 4 τM TO, 4 μM cyclopamine (FIG. 5)
Description: Saos-2 cells were cultured in medium containing 2% FBS and were treated at confluence with 4 μM Cyc, 2 or 4 τM TO, alone or in combination for 72 hours. Expression of Ptch1 and Gli1 (data not shown) mRNA was measured by Q-RT-PCR and normalized to GAPDH.

[12] = test system: CAPAN-1 human pancreatic cancer cells; assay: Ihh and Shh mRNA expression in CAPAN-1 cells; type: cell-based; conditions: cyclopamine 4 μM, TO 2-5 μM, data not shown
Description: Expression of Shh and Ihh mRNA in human cultures of pancreatic cancer cells, CAPAN-1, L3.6p1, and E3LZ10.7 were analyzed by Q-RT-PCR and normalized to GAPDH expression. Cells were cultured in DMEM containing 10% FBS and RNA was extracted 3 days after seeding. Data from a representative experiment are reported as the mean of triplicate determinations±SD (p<0.001 for CAPAN-1 vs. other two cell types for Shh and 11 h mRNA expression).
Culturing CAPAN-1 cells in 1% vs. 10% FBS had no effects on their level of mRNA expression for 11th and Shh (data not shown), and treatment of CAPAN-1 cells with the Hh pathway inhibitor cyclopamine (4 μM) or the LXR agonist TO (2-5 μM) had no effect on the expression of Ihh or Shh mRNA in these cells (data not shown).

[13] = test system: human pancreatic cancer cells; assay: Clonogenic growth of human pancreatic cancer cells in vitro; type: cell-based
LXR [14] = assay: LXR target gene expression in human pancreatic cancer cells

| SMILES | clonogenic growth [1] | Normalized Colony # (% of control) (REH human ALL cells; 0.1 μM) | Raw Colony # (REH human ALL cells; 0.1 μM) | Normalized Colony # (% of control) (REH human ALL cells; 0.5 μM) | Raw Colony # (REH human ALL cells; 0.5 μM) | clonogenic growth [2] | colony formation (% of control) ([3]; Specimen # 1) | colony formation (% of control) ([3]; Specimen # 2) | CAPAN-1 CM-induced expression of Hh target genes Ptch1, Gli1, HHIP (Hedgehog signaling) | clonogenic growth [5] | expression of LXR target genes ABCA1 and SREBP1c (LXR [6]) | Normalized Colony # (% of control) ([7]; 5 μM) | Raw Colony # ([7]; 5 μM) | Normalized Colony # (% of control) ([7]; 10 μM) | Raw Colony # ([7]; 10 μM) | CAPAN-1 CM-induced ALP activity [8] | percentage of cancer stem cells (CD138 negative and ALDH positive cells) [10] | net effect of the LXR agonist on the Hedgehog pathway (Hedgehog pathway) | Ptch1 mRNA expression [11] | expression of Ihh or Shh mRNA [12] | also measured |
| --- | --- | --- | --- | --- | --- | --- | --- | --- | --- | --- | --- | --- | --- | --- | --- | --- | --- | --- | --- | --- | --- |
| CC(C)CC[C@@H](O)[C@](C)(O)[C@H]1CC[C@H]2[C@@H]3CC=C4C[C@@H](O)CC[C@]4(C)[C@H]3CC[C@]12C [Oxy16, (2R,3R)-2-((3S,8S,9S,10R,13S,14S,17S)-3-Hydroxy-10,13-dimethyl-2,3,4,7,8,9,10,11, 12,13,14,15,16,17-tetradecahydro-1H-cyclopenta[a]phenanthren-17-yl)-6-methyl-heptane-2,3-diol] | significant inhibition | 71 % of control | 65 | 15 % of control | 14 | inhibited clonogenic growth | 13 % of control | 20 % of control | inhibited | significant inhibition | significant expression | 22 % of control | 53 | 10 % of control | 24 | inhibited | significantly reduced | – | – | – | induction of ABCA1 and ABCG1 (LXR [4]): induction; potency in blocking clonogenic growth of osteosarcoma cells versus naturally occurring counterparts ([5]; osteosarcoma cells, compared with 22R and 20S): more potent than its naturally occurring counterparts; induction of LXR target genes ABCA1 and ABCG1 (LXR [6]; osteosarcoma cells, preliminary studies (FIG. 3)): strong induction; fold induction at 2 µM (LXR [9]; M210B4, 48 h, read-out: ABCA1 gene expression, Fold Induction ± SD): 2.1 ± 0.5; LXR signaling activation (LXR [9]; bone marrow stromal cells): Activate LXR Signaling |
| C=C(C)CCC[C@](C)(O)C1CCC2C3CC=C4C[C@@H](O)CC[C@]4(C)C3CC[C@@]21C (stereo partly shown) [Oxy 13] | – | – | – | – | – | – | – | – | – | – | – | – | – | – | – | – | – | leave the Hedgehog pathway active | – | – | – |
| CC1=C2C[C@H]3[C@@H](CC=C4C[C@@H](O)CC[C@@]43C)[C@@H]2CC[C@]12O[C@@H]1C[C@H](C)CN[C@H]1[C@H]2C [cyclopamine] | – | – | – | – | – | – | – | – | completely inhibited | – | – | – | – | – | – | inhibited | – | – | significant inhibition | no effect | – |
| O=S(=O)(c1ccccc1)N(CC(F)(F)F)c1ccc(C(O)(C(F)(F)F)C(F)(F)F)cc1 [TO, TO901317, reference compound] | significant inhibition | 48 % of control | 44 | 37 % of control | 34 | inhibited clonogenic growth | 27 % of control | 18 % of control | significantly inhibited | significant inhibition | robust expression | 41 % of control | 100 | 15 % of control | 37 | significantly inhibited | significantly reduced | – | significant inhibition | no effect | clonogenic growth [13]: significantly inhibit; expression of LXR target genes (LXR [14]): induce the expression of LXR target genes |
| C[C@H](CCCC(C)(C)O)[C@H]1CC[C@H]2[C@@H]3CC=C4C[C@@H](O)CC[C@]4(C)[C@H]3CC[C@]12C [25-hydroxycholesterol] | – | – | – | – | – | – | – | – | – | – | – | – | – | – | – | – | – | leave the Hedgehog pathway active | – | – | – |
